Literature values in patent publication US20090156457A1, “METHODS AND MEANS FOR SCREENING FOR RHOMBOID ACTIVITY” (MEDICAL RESEARCH COUNCIL, priority 2004, published 2009).

System: Rhomboid

## Cc1ccc(S(=O)(=O)N[C@@H](Cc2ccccc2)C(=O)CCl)cc1 [TPCK]
  Rhomboid activity: inhibit Rhomboid activity

## O=c1oc(Cl)c(Cl)c2ccccc12 [3,4-DCI]
  Rhomboid activity: inhibit Rhomboid activity
